In patent publication US5840684A, “Glycopeptide antibiotic derivatives” (Eli Lilly and Company, priority 1995, dated 1998):
In brackets after ≈: the same amount, converted by molar mass.

Assays:
[1] = tested on: Streptococcus pyogenes C203; assay: broth micro-dilution MIC; format: cell-based
Experimental: (§1) The MIC's were determined using a standard broth micro-dilution assay.

[2] = tested on: Entercoccus faecium 180-1; assay: broth micro-dilution MIC; format: cell-based
Experimental: as §1

[3] = tested on: Staphylococcus aureus X778; assay: broth micro-dilution MIC; format: cell-based
Experimental: as §1

[4] = tested on: Staphylococcus aureus SA1199; assay: broth micro-dilution MIC; format: cell-based
Experimental: as §1

[5] = tested on: Staphylococcus aureus X400; assay: broth micro-dilution MIC; format: cell-based
Experimental: as §1

[6] = tested on: Staphylococcus aureus SA1199B; format: cell-based
Experimental: as §1

[7] = tested on: Streptococcus pneumoniae P1; assay: broth micro-dilution MIC; format: cell-based
Experimental: (§2) The formula I compounds have in vitro and in vivo activity against Gram-positive pathogenic bacteria. The MIC's were determined using a standard broth micro-dilution assay.

[8] = tested on: Enterococcus gallinarum 245; assay: broth micro-dilution MIC; format: cell-based; conditions: Enterococcus gallinarum 245
Experimental: as §2

Escherichia coli EC14 = assay: broth micro-dilution MIC; format: cell-based
Experimental: as §2

[9] = tested on: Staphylococcus haemolyticus 105; assay: broth micro-dilution MIC; format: cell-based
Experimental: as §2

Entercoccus faecium 180 = assay: broth micro-dilution MIC; format: cell-based; conditions: Entercoccus faecium 180
Experimental: as §2

[10] = tested on: Staphylococcus haemolyticus 415; assay: broth micro-dilution MIC; format: cell-based
Experimental: as §2

[11] = tested on: vancomycin-resistant enterococci; assay: broth micro-dilution, mean geometric MIC; format: cell-based, Enterococcus faecium and Enterococcus faecalis; conditions: enterococci, 24-hour incubation
[12] = tested on: Staphylococcus aureus SA1199A; assay: broth micro-dilution MIC; format: cell-based
Experimental: as §1

Entercoccus faecium 276 = assay: broth micro-dilution MIC; format: cell-based
Experimental: as §1

[13] = tested on: Staphylococcus aureus 491; assay: broth micro-dilution MIC; format: cell-based
Experimental: as §1

[14] = tested on: Staphylococcus aureus 446; assay: broth micro-dilution MIC; format: cell-based
Experimental: as §1

[15] = tested on: Staphylococcus aureus 489; assay: broth micro-dilution MIC; format: cell-based
Experimental: as §1

[16] = tested on: Staphylococcus aureus 447; assay: broth micro-dilution MIC; format: cell-based
Experimental: as §1

[17] = tested on: Staphylococcus aureus S13E; format: cell-based
Experimental: as §1

[18] = tested on: Staphylococcus epidermidis 270; assay: broth micro-dilution MIC; format: cell-based
Experimental: as §2

[19] = tested on: Haemophilus influenzae RD; assay: broth micro-dilution MIC; format: cell-based; conditions: Haemophilus influenzae RD
Experimental: as §2

Entercoccus faecium 2041 = assay: broth micro-dilution MIC; format: cell-based; conditions: Entercoccus faecium 2041
Experimental: as §2

[20] = tested on: vancomycin-susceptible enterococci; assay: broth micro-dilution, mean geometric MIC; format: cell-based, Enterococcus faecium and Enterococcus faecalis; conditions: enterococci, 24-hour incubation

| Structure (SMILES) | MIC [1] [µg/mL] | MIC [2] [µg/mL] | MIC [3] [µg/mL] | MIC [4] [µg/mL] | MIC [5] [µg/mL] | MIC [6] [µg/mL] | MIC [7] [µg/mL] | MIC [8] [µg/mL] | MIC [9] [µg/mL] | MIC (Entercoccus faecium 180) [µg/mL] | MIC [10] [µg/mL] | mean geometric MIC, Vancomycin Resistant Strains [11] [µg/mL] | MIC [12] [µg/mL] | MIC (Entercoccus faecium 276) [µg/mL] | MIC [13] [µg/mL] | MIC [14] [µg/mL] | MIC [15] [µg/mL] | MIC [16] [µg/mL] | MIC [17] [µg/mL] | MIC [18] [µg/mL] | also measured |
| --- | --- | --- | --- | --- | --- | --- | --- | --- | --- | --- | --- | --- | --- | --- | --- | --- | --- | --- | --- | --- | --- |
| CNC(CC(C)C)C(=O)NC1C(=O)NC(CC(N)=O)C(=O)NC2C(=O)NC3C(=O)NC(C(=O)NC(C(=O)O)c4cc(O)cc(O)c4-c4cc3ccc4O)C(OC3CC(C)(N)C(O)C(C)O3)c3ccc(c(Cl)c3)Oc3cc2cc(c3OC2OC(CO)C(O)C(O)C2OC2CC(C)(NCc3c(C)c(C)c(C)c(C)c3C)C(O)C(C)O2)Oc2ccc(cc2Cl)C1O (centres unmarked) [Compound 73] | ≤ 0.06 | ≤ 0.06 | 1 (≈ 0.571 µM) | 0.5 (≈ 0.285 µM) | 0.5 (≈ 0.285 µM) | ≤ 0.06 | ≤ 0.06 | 2 (≈ 1.14 µM) | 0.5 (≈ 0.285 µM) | 0.5 (≈ 0.285 µM) | 2 (≈ 1.14 µM) | 11 |  |  |  |  |  |  |  |  | MIC (Escherichia coli EC14): > 64 µg/mL |
| CNC(CC(C)C)C(=O)NC1C(=O)NC(CC(N)=O)C(=O)NC2C(=O)NC3C(=O)NC(C(=O)NC(C(=O)O)c4cc(O)cc(O)c4-c4cc3ccc4O)C(OC3CC(C)(N)C(O)C(C)O3)c3ccc(c(Cl)c3)Oc3cc2cc(c3OC2OC(CO)C(O)C(O)C2OC2CC(C)(NCCCCCCCCBr)C(O)C(C)O2)Oc2ccc(cc2Cl)C1O (centres unmarked) [Compound 198] | ≤ 0.06 | ≤ 0.06 | 0.125 (≈ 0.0701 µM) | 0.5 (≈ 0.28 µM) | 0.5 (≈ 0.28 µM) | 0.5 (≈ 0.28 µM) | ≤ 0.06 | 1 (≈ 0.561 µM) | 0.5 (≈ 0.28 µM) | ≤ 0.06 | 1 (≈ 0.561 µM) | 3.4 | ≤ 0.06 | 0.25 (≈ 0.14 µM) | ≤ 0.06 | 1 (≈ 0.561 µM) | 0.125 (≈ 0.0701 µM) | 0.125 (≈ 0.0701 µM) | 0.125 (≈ 0.0701 µM) | 0.25 (≈ 0.14 µM) | MIC [19]: 32 µg/mL (≈ 17.9 µM); MIC (Entercoccus faecium 2041): ≤ 0.06 µg/mL; mean geometric MIC, Vancomycin Sensitive Strains [20]: 0.062 µg/mL |
| CNC(CC(C)C)C(=O)NC1C(=O)NC(CC(N)=O)C(=O)NC2C(=O)NC3C(=O)NC(C(=O)NC(C(=O)O)c4cc(O)cc(O)c4-c4cc3ccc4O)C(OC3CC(C)(N)C(O)C(C)O3)c3ccc(c(Cl)c3)Oc3cc2cc(c3OC2OC(CO)C(O)C(O)C2OC2CC(C)(NCCCCCCCCOc3ccc(Oc4ccccc4)cc3)C(O)C(C)O2)Oc2ccc(cc2Cl)C1O (centres unmarked) [Compound 202] | ≤ 0.06 | 0.5 (≈ 0.265 µM) | 4 (≈ 2.12 µM) | 8 (≈ 4.24 µM) | 4 (≈ 2.12 µM) | 8 (≈ 4.24 µM) | ≤ 0.06 | 8 (≈ 4.24 µM) | 4 (≈ 2.12 µM) | 0.5 (≈ 0.265 µM) | 8 (≈ 4.24 µM) | 1.4 | 2 (≈ 1.06 µM) | 4 (≈ 2.12 µM) | 4 (≈ 2.12 µM) | 4 (≈ 2.12 µM) | 4 (≈ 2.12 µM) | 8 (≈ 4.24 µM) | 4 (≈ 2.12 µM) | 4 (≈ 2.12 µM) | MIC [19]: 32 µg/mL (≈ 16.9 µM); MIC (Entercoccus faecium 2041): 1 µg/mL (≈ 0.529 µM); mean geometric MIC, Vancomycin Sensitive Strains [20]: 0.76 µg/mL |
| CNC(CC(C)C)C(=O)NC1C(=O)NC(CC(N)=O)C(=O)NC2C(=O)NC3C(=O)NC(C(=O)NC(C(=O)O)c4cc(O)cc(O)c4-c4cc3ccc4O)C(OC3CC(C)(N)C(O)C(C)O3)c3ccc(c(Cl)c3)Oc3cc2cc(c3OC2OC(CO)C(O)C(O)C2OC2CC(C)(NCc3cccc(Oc4cccc(C(F)(F)F)c4)c3)C(O)C(C)O2)Oc2ccc(cc2Cl)C1O (centres unmarked) [Compound 203] | ≤ 0.06 | ≤ 0.06 | 1 (≈ 0.543 µM) | 2 (≈ 1.09 µM) | 1 (≈ 0.543 µM) | 1 (≈ 0.543 µM) | ≤ 0.06 | 2 (≈ 1.09 µM) | 1 (≈ 0.543 µM) | 0.125 (≈ 0.0678 µM) | 2 (≈ 1.09 µM) | 1.0 | 0.5 (≈ 0.271 µM) | 0.5 (≈ 0.271 µM) | 1 (≈ 0.543 µM) | 0.5 (≈ 0.271 µM) | 0.5 (≈ 0.271 µM) | 1 (≈ 0.543 µM) | 2 (≈ 1.09 µM) | 0.5 (≈ 0.271 µM) | MIC [19]: 16 µg/mL (≈ 8.68 µM); MIC (Entercoccus faecium 2041): 0.25 µg/mL (≈ 0.136 µM); mean geometric MIC, Vancomycin Sensitive Strains [20]: 0.036 µg/mL |
| CNC(CC(C)C)C(=O)NC1C(=O)NC(CC(N)=O)C(=O)NC2C(=O)NC3C(=O)NC(C(=O)NC(C(=O)O)c4cc(O)cc(O)c4-c4cc3ccc4O)C(OC3CC(C)(N)C(O)C(C)O3)c3ccc(c(Cl)c3)Oc3cc2cc(c3OC2OC(CO)C(O)C(O)C2OC2CC(C)(NCc3ccc(OCCCCCCc4ccccc4)cc3)C(O)C(C)O2)Oc2ccc(cc2Cl)C1O (centres unmarked) [Compound 219] | ≤ 0.06 | 1 (≈ 0.538 µM) | 8 (≈ 4.3 µM) | 4 (≈ 2.15 µM) | 8 (≈ 4.3 µM) | 8 (≈ 4.3 µM) | ≤ 0.06 | 2 (≈ 1.08 µM) | 2 (≈ 1.08 µM) | 1 (≈ 0.538 µM) | 2 (≈ 1.08 µM) | 0.71 | 1 (≈ 0.538 µM) | 2 (≈ 1.08 µM) | 4 (≈ 2.15 µM) | 8 (≈ 4.3 µM) | 8 (≈ 4.3 µM) | 8 (≈ 4.3 µM) | 8 (≈ 4.3 µM) | 4 (≈ 2.15 µM) | MIC [19]: 32 µg/mL (≈ 17.2 µM); MIC (Entercoccus faecium 2041): 2 µg/mL (≈ 1.08 µM); mean geometric MIC, Vancomycin Sensitive Strains [20]: 0.044 µg/mL |
| CNC(CC(C)C)C(=O)NC1C(=O)NC(CC(N)=O)C(=O)NC2C(=O)NC3C(=O)NC(C(=O)NC(C(=O)O)c4cc(O)cc(O)c4-c4cc3ccc4O)C(OC3CC(C)(N)C(O)C(C)O3)c3ccc(c(Cl)c3)Oc3cc2cc(c3OC2OC(CO)C(O)C(O)C2OC2CC(C)(NCCCCCCCCCC#Cc3ccccc3)C(O)C(C)O2)Oc2ccc(cc2Cl)C1O (centres unmarked) [Compound 236] | ≤ 0.06 | 1 (≈ 0.55 µM) | 2 (≈ 1.1 µM) | 4 (≈ 2.2 µM) | 2 (≈ 1.1 µM) | 4 (≈ 2.2 µM) | ≤ 0.06 | 4 (≈ 2.2 µM) | 4 (≈ 2.2 µM) | 1 (≈ 0.55 µM) | 4 (≈ 2.2 µM) | 1.4 | 2 (≈ 1.1 µM) | 2 (≈ 1.1 µM) | 4 (≈ 2.2 µM) | 1 (≈ 0.55 µM) | 4 (≈ 2.2 µM) | 4 (≈ 2.2 µM) | 4 (≈ 2.2 µM) | 2 (≈ 1.1 µM) | MIC [19]: 32 µg/mL (≈ 17.6 µM); MIC (Entercoccus faecium 2041): 1 µg/mL (≈ 0.55 µM); mean geometric MIC, Vancomycin Sensitive Strains [20]: 0.5 µg/mL |
